Columns and labels:
[1] = system: stress-induced hyperthermia in rats; assay: Attenuation of stress-induced hyperthermia in rats; assay type: in vivo, rat; details: male Fischer F-344 rats, p.o., 60 min pretreatment, T2-T1 rectal temperature
Text: Attenuation of Stress-Induced Hyperthermia in Rats
In many anxiety disorders, hyperthermia occurs as part of the pathology and is considered a symptom of the disease. Compounds which attenuate stress-induced hyperthermia in animals are believed to be useful in treating anxiety disorders in humans.
The conventional and minimally-invasive method for analyzing stress-induced hyperthermia is by measuring body temperature, and stress-induced increases in body temperature, via rectal thermometer. Male Fischer F-344; rats (Harlan, Indianapolis, Ind., USA) weighing between 275-350; g are tested. All animals are individually-housed with food and automated water available ad libitum, and maintained on a 12; h light/dark cycle (lights on at 06:00). Animals are fasted for approximately 12-18; hours before the experiment, which is conducted during the light phase. […]
After the pretreatment period, rats are taken individually to a brightly lit adjacent room where baseline body temperatures are determined by insertion of a rectal probe lubricated with mineral oil. Body temperature is assessed using a PHYSITEMP BAT-12® Microprobe Thermometer with a PHYSITEMP RET-2® rat rectal probe (Physitemp Instruments Inc., Clifton, N.J., USA). […] Ten minutes later a second body temperature measurement is recorded (T2). […]

human mGluR5 = target: T1, human mGluR5 (Homo sapiens, UniProt P41594); assay: Functional in vitro activity at human mGluR5 receptors (FLIPR calcium assay, antagonism of glutamate EC90 response); assay type: cell-based; details: AV-12 cells expressing recombinant human mGluR5a and rat EAAT1, relative IC50, read-out: IC50 measured at mGluR5
T1 construct: expressed in transfected cells; host or cells: AV-12 cells (ATCC) containing the rat EAAT1 glutamate transporter
T1 sequence (P41594 21-1180 isoform P41594-2 limits assumed): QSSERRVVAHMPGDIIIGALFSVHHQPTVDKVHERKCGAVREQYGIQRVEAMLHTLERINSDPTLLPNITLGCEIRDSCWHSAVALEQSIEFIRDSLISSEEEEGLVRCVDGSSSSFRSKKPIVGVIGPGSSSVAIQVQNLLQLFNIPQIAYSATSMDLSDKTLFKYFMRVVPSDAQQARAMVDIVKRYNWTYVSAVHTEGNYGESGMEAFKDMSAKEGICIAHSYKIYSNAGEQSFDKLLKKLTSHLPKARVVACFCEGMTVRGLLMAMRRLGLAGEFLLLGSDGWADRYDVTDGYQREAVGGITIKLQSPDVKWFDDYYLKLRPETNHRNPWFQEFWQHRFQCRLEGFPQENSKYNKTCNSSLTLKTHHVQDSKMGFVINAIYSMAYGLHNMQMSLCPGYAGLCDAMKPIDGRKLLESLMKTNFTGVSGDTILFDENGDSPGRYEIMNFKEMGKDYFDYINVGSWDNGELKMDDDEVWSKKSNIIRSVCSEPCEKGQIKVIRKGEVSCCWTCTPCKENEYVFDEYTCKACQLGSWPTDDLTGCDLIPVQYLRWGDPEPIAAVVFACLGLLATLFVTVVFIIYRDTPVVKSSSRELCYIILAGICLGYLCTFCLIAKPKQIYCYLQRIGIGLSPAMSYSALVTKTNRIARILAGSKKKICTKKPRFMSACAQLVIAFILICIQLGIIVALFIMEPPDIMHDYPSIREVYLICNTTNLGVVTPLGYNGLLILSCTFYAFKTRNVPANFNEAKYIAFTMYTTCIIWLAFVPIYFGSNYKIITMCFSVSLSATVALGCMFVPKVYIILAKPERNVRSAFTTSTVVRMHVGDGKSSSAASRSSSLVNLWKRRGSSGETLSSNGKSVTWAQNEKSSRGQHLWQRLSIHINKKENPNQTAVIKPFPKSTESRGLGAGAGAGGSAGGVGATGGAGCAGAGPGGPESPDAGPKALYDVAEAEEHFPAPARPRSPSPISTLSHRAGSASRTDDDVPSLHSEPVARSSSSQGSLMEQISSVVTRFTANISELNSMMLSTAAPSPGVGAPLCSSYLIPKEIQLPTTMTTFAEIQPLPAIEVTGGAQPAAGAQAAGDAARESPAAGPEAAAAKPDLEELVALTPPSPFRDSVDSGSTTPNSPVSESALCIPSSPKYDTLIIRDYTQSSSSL
Text: Functional in Vitro Activity at Human mGluR5; and mGluR1; Receptors
The activation of G-protein coupled receptors (GPCRS) that are coupled to GTP-binding protein alpha q (Gq proteins) results in a change in intracellular calcium concentration. This functional response can be measured in a kinetic assay using calcium-sensitive dyes and a fluorescent imaging plate reader using a standard technique known as FLIPR (MDS Analytical Technologies, Sunnyvale, Calif.). Stable cell line preparation and assay techniques are adapted from Kingston, A. E., et. al. (1995) Neuropharmacology 34: 887-894. […]
For the functional assays, cells are seeded in growth medium lacking selection antibiotics at a density of 65K per well into 96-well, black/clear bottom, poly-D-lysine coated microplates and incubated for 18-20; hours prior to the experiment. […] The antagonist effects of compounds are quantified in the FLIPR instrument in 10-point dose curves by comparing the peak fluorescent responses to the agonist glutamate in the presence and absence of compound. Specifically, the compound effect is measured as maximal minus minimal peak heights in relative fluorescent units corrected for basal fluorescence as measured in the absence of glutamate. […]

melting point [°C] | IC50 (human mGluR5) [nM] | Structure (SMILES) | T35 dose (dose producing a 35% reduction in stress-induced hyperthermic response relative to vehicle) [1] [mg/kg]
159.4 |  | CCc1cccc(-c2c(-c3ccc4nn(C)cc4c3)nsc2NC(=O)[C@@H]2C[C@H]2C)n1 [Example 22, (1R,2R)-2-methyl-cyclopropanecarboxylic acid [4-(6-ethyl-pyridin-2-yl)-3-(2-methyl-2H-indazol-5-yl)-isothiazol-5-yl]-amide] | 
142 to 144 |  | CC(C)c1cccc(-c2c(-c3ccc4nn(C)cc4c3)nsc2NC(=O)[C@@H]2C[C@H]2C)n1 [Example 23, (1R,2R)-2-methyl-cyclopropanecarboxylic acid [4-(6-isopropyl-pyridin-2-yl)-3-(2-methyl-2H-indazol-5-yl)-isothiazol-5-yl]-amide] | 
 | 9.5 | CCc1cccc(-c2c(-c3ccc4nn(C)cc4c3)nsc2NC(=O)[C@@H]2C[C@H]2C)n1.Cl [Example 2, (1R,2R)-2-methyl-cyclopropanecarboxylic acid [4-(6-ethyl-pyridin-2-yl)-3-(2-methyl-2H-indazol-5-yl)-isothiazol-5-yl]-amide hydrochloride] | 3.0
